Structures can show the parent of a compound that is named as a salt. Where two headings read alike, the source gives them in different places.
Assays:
[1] = tested on: HSA: heme-Fe(III); set-up: method as in PMID 32279215; conditions: pH 7.3, 20 °C, Phosphate 2.0 × 10^−2 M DMSO 10%, binding site IB, UV; cited from earlier work
[2] = tested on: HSA fatty acid-free; set-up: method as in PMID 29680174; conditions: Tris–HCl (0.10 M NaCl) DMSO 2%, FS, cited from earlier work
[3] = biological target: T1, fatty-acid-free HSA; experiment: Isothermal titration calorimetry (ITC) of anticoagulants with HSA; set-up: species or system human; conditions: phosphate buffer 10 mM, pH 7.4, 298 K, one-site binding model
T1 construct: purchased Sigma-Aldrich
Method: (§1) ITC analyses were performed in phosphate buffer, 10 mM, pH = 7.4. […] Lower ionization enthalpy reduces heat signals associated with proton-exchange reactions between the buffer and the ligand/host system during complex formation. […] A plot of the heat released per mole of HSA as a function of the molar ratio of the solution ([HSA]/[anticoagulant]) is shown at the foot of each figure. […] Control titrations were performed (drug over buffer) and subtracted from each analysis before the fitting.
(§2) ITC data were obtained using a MicroCal PEAQ-ITC instrument (Malvern Panalytical). […] Working solutions were prepared using aliquots of the stock solutions of anticoagulants diluted in phosphate buffer, 10 mM, pH = 7.4. […] The first injection was 0.40 μL, followed by 12 injections of 3.0 μL. Reference power was set to 5 μcal/s, 500 rpm stirring speed, initial delay of 60 s, and injection spacing of 150 s. Titration curves were drawn in duplicate and the thermodynamic parameters were fitted to the one-site binding model using Microcal PEAQ-ITC analysis software. Controls were measured by recording the heat effects of the titrant over plain buffer and were subtracted from thermograms before fitting analysis. All the measurements were performed in duplicate.

[4] = tested on: T2, human serum albumin (HSA); experiment: Steady-state fluorescence quenching of HSA (Stern–Volmer analysis); type: binding; conditions: for Ksv (Stern–Volmer constant): 0.10 M tris-HCl pH 7.4, 0.10 M NaCl, 2 µM HSA, 0–20 µM drug, λex 295 nm; for Ksv of salt compared to the neutral compound: 298 K and 310 K
T2 construct: purchased Sigma-Aldrich
Method: The fluorescence intrinsic to proteins is attributed to aromatic amino acid residues, such as tryptophan (Trp), phenylalanine (Phe), and tyrosine (Tyr). The fluorescence of HSA in particular can be traced back to its tyrosine and tryptophan residues, therefore the experiments were performed with an excitation wavelength of 295 nm, because tryptophan absorbs light in this range [33]. HSA has a single tryptophan residue (Trp-214) close to the Sudlow site I (subdomain IIA), responsible for the main fluorescence emission of the protein [34, 35]. Binding to this site induces fluorescence quenching, which is a very helpful tool to evaluate different drugs’ interactions with HSA.
Sample measurements were recorded in 0.10 M tris-HCl buffer pH 7.4 with 0.10 M NaCl, 2 µM HSA, 0–20 µM FXa inhibitors respectively (λex = 295 nm).
The quenching process of HSA can be described as static or dynamic. Static quenching occurs when HSA forms complexes with anticoagulants in the ground state, whereas dynamic quenching occurs via diffusion-controlled encounters in the excited state. Consequently, temperature affects the quenching processes in a different manner. The Stern–Volmer constant has a temperature dependence: Ksv in a dynamic process increases with temperature due to the necessity of successful diffusion and collision of the FXa inhibitors with the tryptophan residues of HSA. In a static quenching process, Ksv decreases with rising temperature, due to the diminished stability of the complex in the ground state. The quenching process of HSA can be analyzed by the Stern–Volmer equation, which provides helpful information regarding the binding process. Table 1 and Figure 4 summarize the Ksv of the HSA-FXa inhibitor complexes at 298 K and 310 K respectively. The Ksv of betrixaban and edoxaban were compared with their respective salts, betrixaban maleate (BEM) and edoxaban tosylate hydrate (EDT).
Fluorescence emission spectra were collected on a Perkin Elmer LS55 fluorimeter, using 5 nm bandwidths for excitation and emission. Samples were excited at 295 nm and 298 K or 310 K, respectively. Subsequently, HSA fluorescence was measured at 350 nm decreases, in the presence of different anticoagulants, corrected by the inner-filter effect using Equation (1) where Icorr and Iobs correspond to fluorescence corrected and obtained intensities, and Aex and Aem correspond to the absorbance at the excitation and emission wavelengths. The quenching data were evaluated using the Stern–Volmer Equation (2), where I0 and I are the fluorescence intensities of the HSA in the absence or presence of anticoagulants (Q, quenchers), and Ksv is the Stern–Volmer constant:(1) Icorr=Iobs×10^Aex+Aem/2 (2) I0/I=1+KsvQ

[5] = Aqueous solubility observed in preparing ITC solutions; type: physicochemical; conditions: also with solvent mixtures that included ethanol and DMSO, prevented ITC data
Method: as §1, §2

[6] = reversible protein–drug complexes; cited from earlier work
[7] = tested on: BSA; conditions: binding site IIA, FS, cited from earlier work
[8] = set-up: method as in PMID 32279215; conditions: rivaroxaban-treated patients; cited from earlier work

Row | SMILES | KITC binding constant [3] | aqueous solubility [5] | aqueous solubility ([5]; listed as edoxaban) | aqueous solubility ([5]; listed as rivaroxaban) | K [1] | K ([2]; pH 7.4, 28 °C, binding site IIA) | K ([2]; pH 7.4, 37 °C, binding site IB) | K ([2]; pH 7.4, 45 °C, binding site IB) | Ksv (Stern–Volmer constant) ([4]; 298 K) | Ksv (Stern–Volmer constant) ([4]; 310 K) | Ksv of salt compared to the neutral compound [4] | binding to plasma proteins [6] | K ([7]; pH 7.4, 25 °C, Phosphate DMSO 0.3%) | K ([7]; pH 7.4, 30 °C, Phosphate DMSO 0.3%) | K ([7]; pH 7.4, 35 °C, Phosphate buffer DMSO 0.3%) | adjusted risk of bleeding per 1.0 g/dL incremental decrease in albumin [8]
1 | COc1ccc(-n2nc(C(N)=O)c3c2C(=O)N(c2ccc(N4CCCCC4=O)cc2)CC3)cc1 [AP, apixaban] | 5560 M⁻¹ |  |  |  | 2.78e+06 M⁻¹ | 3410 M⁻¹ | 2460 M⁻¹ | 1670 M⁻¹ | 3.36 ± 0.03 ×10^4 M^−1 | 2.79 ± 0.02 ×10^4 M^−1 |  |  |  |  |  | 
2 | CN1CCc2nc(C(=O)N[C@@H]3C[C@@H](C(=O)N(C)C)CC[C@@H]3NC(=O)C(=O)Nc3ccc(Cl)cn3)sc2C1 [ED, edoxaban] |  | poor aqueous solubility | low water solubility |  | 769000 M⁻¹ |  |  |  | 1.60 ± 0.04 ×10^4 M^−1 | 1.28 ± 0.05 ×10^4 M^−1 |  | 55% |  |  |  | 
3 | O=C(NC[C@H]1CN(c2ccc(N3CCOCC3=O)cc2)C(=O)O1)c1ccc(Cl)s1 [RV, rivaroxaban] |  | poor aqueous solubility |  | low water solubility | 455000 M⁻¹ |  |  |  | 1.56 ± 0.03 ×10^4 M^−1 | 0.98 ± 0.04 ×10^4 M^−1 |  | 95% | 132000 M⁻¹ | 18200 M⁻¹ | 4370 M⁻¹ | 4.4 fold

The next lines start with results.

Row | KITC binding constant [3] | aqueous solubility [5] | aqueous solubility ([5]; listed as edoxaban) | aqueous solubility ([5]; listed as rivaroxaban) | SMILES | K [1] | K ([2]; pH 7.4, 28 °C, binding site IIA) | K ([2]; pH 7.4, 37 °C, binding site IB) | K ([2]; pH 7.4, 45 °C, binding site IB) | Ksv (Stern–Volmer constant) ([4]; 298 K) | Ksv (Stern–Volmer constant) ([4]; 310 K) | Ksv of salt compared to the neutral compound [4] | binding to plasma proteins [6] | K ([7]; pH 7.4, 25 °C, Phosphate DMSO 0.3%) | K ([7]; pH 7.4, 30 °C, Phosphate DMSO 0.3%) | K ([7]; pH 7.4, 35 °C, Phosphate buffer DMSO 0.3%) | adjusted risk of bleeding per 1.0 g/dL incremental decrease in albumin [8]
4 |  | poor aqueous solubility |  |  | COc1ccc(NC(=O)c2ccc(C(=N)N(C)C)cc2)c(C(=O)Nc2ccc(Cl)cn2)c1 [BE, betrixaban] | 1.61e+06 M⁻¹ |  |  |  | 1.86 ± 0.03 ×10^4 M^−1 | 1.44 ± 0.04 ×10^4 M^−1 |  |  |  |  |  | 
5 | 1600 M⁻¹ |  |  |  | COc1ccc(NC(=O)c2ccc(C(=N)N(C)C)cc2)c(C(=O)Nc2ccc(Cl)cn2)c1 [BEM, betrixaban maleate] |  |  |  |  | 1.59±0.05 ×10^4 M^−1 | 1.36±0.03 ×10^4 M^−1 | no significant differences |  |  |  |  | 
6 |  | poor aqueous solubility |  |  | CN1CCc2nc(C(=O)N[C@@H]3C[C@@H](C(=O)N(C)C)CC[C@@H]3NC(=O)C(=O)Nc3ccc(Cl)cn3)sc2C1.Cc1ccc(S(=O)(=O)O)cc1.O [EDT, Edoxaban tosylate hydrate] |  |  |  |  | 1.79±0.03 ×10^4 M^−1 | 1.27±0.02 ×10^4 M^−1 | no significant differences |  |  |  |  | 

— publication PMC10002493, “Direct Oral FXa Inhibitors Binding to Human Serum Albumin: Spectroscopic, Calorimetric, and Computational Studies” (International Journal of Molecular Sciences, 2023)
